Laboratory results published in US6428804B1, “Intra-articular preparation for the treatment of arthropathy” (SSP Co., Ltd., priority 1997, dated 2002).

Assays:
[1] = Pharmacokinetic test of DFNa-containing microcapsules (Test 6); type: in vivo; conditions: rabbit knee joint, 1 mg in terms of DFNa, solution in physiological saline (FIG. 9)
Method: The DFNa-containing microcapsules (average particle size: 67.9 μm) obtained in Example 25 were suspended in the same injection-grade dispersion medium as that employed in Test 1. The resulting suspension was injected in a dose of 10 mg in terms of DFNa into a knee joint of a rabbit, and the amount of DF in the synovium and its peripheral tissue was measured periodically. As a control, a solution of DFNa in a physiological saline was injected in a dose of 1 mg in terms of DFNa, and measurements were conducted.

[2] = Pharmacokinetic test of MTX-containing microcapsules (Test 8); type: in vivo; conditions: rabbit knee joint, 1 mg in terms of MTX (FIG. 11)
Method: The MTX-containing microcapsules obtained in Example 26 were suspended in the same injection-grade dispersion medium as that employed in Test 1. The resulting suspension was injected in a dose of 1 mg in terms of MTX into a knee joint of a rabbit, and the amount of MTX in the synovium and its peripheral tissue was measured periodically. As a control, MTX was dissolved in a phosphate buffer of pH 7.5 and the resulting solution was injected in a dose of 1 mg in terms of MTX.

## O=C(O)Cc1ccccc1Nc1c(Cl)cccc1Cl [diclofenac sodium]
[1]
  amount of DF in the synovium and its peripheral tissue: no existence of DF was observed

## CN(Cc1cnc2nc(N)nc(N)c2n1)c1ccc(C(=O)N[C@@H](CCC(=O)O)C(=O)O)cc1 [solution of MTX in the phosphate buffer, Methotrexate]
[2]
  amount of MTX in the synovium and its peripheral tissue: no existence of MTX was observed
